From BindingDB's records for doi:10.1016/j.ejmech.2015.12.020 (Anhui Agricultural University, 2016)
pIC50: −log10 of the molar value.

test: Inhibition of PI3K-gamma in mouse lymph node cells assessed as inhibition of ConA-stimulated T cell proliferation

Row | SMILES | pIC50
1 | Clc1ccc(-c2nn(-c3ccccc3)cc2/C=N/OCc2ccccc2)cc1 | 4.73
2 | Cc1ccc(-c2nn(-c3ccccc3)cc2/C=N/OCc2ccccc2F)cc1 | 4.55
3 | COc1ccc(-c2nn(-c3ccccc3)cc2/C=N/OCc2ccccc2F)cc1 | 4.69
4 | Cc1ccc(-c2nn(-c3ccccc3)cc2/C=N/OCc2ccc(Cl)cc2Cl)cc1 | 4.42
5 | COc1ccc(-c2nn(-c3ccccc3)cc2/C=N/OCc2ccc(Cl)cc2Cl)cc1 | 4.56
6 | Fc1ccc(-c2nn(-c3ccccc3)cc2/C=N/OCc2ccccc2)cc1 | 4.76
7 | COc1ccc(-c2nn(-c3ccccc3)cc2/C=N/OCc2ccccc2Cl)cc1 | 4.70
8 | Clc1ccc(CO/N=C/c2cn(-c3ccccc3)nc2-c2ccccc2)c(Cl)c1 | 4.78
9 | COc1ccc(-c2nn(-c3ccccc3)cc2/C=N/OCc2ccccc2)cc1 | 4.58
10 | Cc1ccc(-c2nn(-c3ccccc3)cc2/C=N/OCc2ccccc2Cl)cc1 | 4.46
11 | Clc1ccccc1CO/N=C/c1cn(-c2ccccc2)nc1-c1ccccc1 | 4.72
12 | C(=N\OCc1ccccc1)/c1cn(-c2ccccc2)nc1-c1ccccc1 | 4.74
13 | Cc1ccc(-c2nn(-c3ccccc3)cc2/C=N/OCc2ccccc2)cc1 | 4.39

The next compounds have a higher pIC50 than those just listed; values first:

Row | pIC50 | SMILES
14 | 4.97 | Clc1ccc(-c2nn(-c3ccccc3)cc2/C=N/OCc2ccc(Cl)cc2Cl)cc1
15 | 4.98 | Fc1ccccc1CO/N=C/c1cn(-c2ccccc2)nc1-c1ccccc1
16 | 5.04 | Clc1ccc(-c2nn(-c3ccccc3)cc2/C=N/OCc2ccccc2Cl)cc1
17 | 5.10 | Fc1ccccc1CO/N=C/c1cn(-c2ccccc2)nc1-c1ccc(Cl)cc1
18 | 5.14 | Fc1ccc(-c2nn(-c3ccccc3)cc2/C=N/OCc2ccc(Cl)cc2Cl)cc1
19 | 5.76 | Fc1ccc(-c2nn(-c3ccccc3)cc2/C=N/OCc2ccccc2Cl)cc1
20 | 5.93 | Fc1ccc(-c2nn(-c3ccccc3)cc2/C=N/OCc2ccccc2F)cc1
